Data set [1] deals with cells with abnormal MEs. Kind of data set: Differentiation inducer (DI) activity, ED25/ED50/ED75. Type of data set: cell-based.
In data set [2] the test system is cells with abnormal MEs. Kind of data set: Differentiation helper inducer (DHI) potency, RI0.5 (reductive index). The format is cell-based. An excerpt: DHI was our invention, which was the term we created. DHls are inhibitors of individual enzymes of MEs. Rl0.5 was the method we developed for the measurement of potency as DHI [67].
Data set [3] is described as follows: Water solubility. The format is physicochemical.
For data set [4], the target named is T1, MAT (Homo sapiens, UniProt P31153).
T1 construct: endogenous in cells
The experiment in a line: Helping role of DHI to boost the activity of DI, in cell culture (Km, Vmax of enzyme from treated cells). Type of data set: cell-based. An excerpt: (§1) DHI was our invention, which was the term we created. DHls are inhibitors of individual enzymes of MEs. Rl0.5 was the method we developed for the measurement of potency as DHI [67]. Inhibitors of MT and SAHH are better than inhibitors of MAT to function as DHIs.

For data set [5], the system named is cells with abnormal MEs. The experiment in a line: Helping role of DHI to boost the activity of DI, in cell culture (% NBT+). The format is cell-based.
Source text: as §1

Data set [6] addresses T2, MEs (MAT-MT-SAHH) (Rattus norvegicus, UniProt P10760).
T2 construct: Cytosol extracts were prepared from prostates of each group; from tissue; host or cells: prostate cytosol of hypophysectomized rats
T2 sequence (P10760 1-432): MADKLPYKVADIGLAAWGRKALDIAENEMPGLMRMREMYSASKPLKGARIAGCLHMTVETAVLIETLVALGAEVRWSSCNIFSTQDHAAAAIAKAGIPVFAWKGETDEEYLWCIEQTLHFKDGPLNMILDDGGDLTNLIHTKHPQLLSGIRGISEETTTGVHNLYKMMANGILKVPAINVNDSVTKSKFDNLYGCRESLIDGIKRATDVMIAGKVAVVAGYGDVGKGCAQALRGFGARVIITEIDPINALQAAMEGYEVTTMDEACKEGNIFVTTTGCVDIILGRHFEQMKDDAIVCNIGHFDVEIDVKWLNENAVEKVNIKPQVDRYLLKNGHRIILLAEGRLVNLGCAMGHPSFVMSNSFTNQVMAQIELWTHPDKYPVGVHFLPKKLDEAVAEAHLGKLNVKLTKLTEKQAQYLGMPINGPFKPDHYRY
Kind of data set: Testosterone administration, sedimentation profiles of MEs from long-term hormone-depleted prostate (FIG. 1). Type of data set: in vivo. The conditions noted are these: hypophysectomized rats, daily sc 1 mg for 3 days; single peak, intact ternary MEs.
Procedure: Ten weeks after hypophysectomy, rats were divided into two groups. One group (b) received daily sc injection of I mg testosterone propionate dissolved in 0.25 ml of sesame oil for 3 days. The other group (a) was control without treatment. Cytosol extracts were prepared from prostates of each group with 5 volume of extraction buffer 0.05 M Tris HCl, pH 7.5, 50 mM KCl, 0.5 mM MgCl2. 0.1 ml of cytosol extracts were layered onto 5-20% linear sucrose density gradient for sedimentation analyses.

In data set [7] the test system is malignant brain tumors. The conditions noted are these: in vivo; cited from earlier work.
The mark [8] stands for this setting: potency as DHI, RI0.5 is equivalent to ED25 of DI.

Read-outs that look alike come from different tables or passages of the source.

One may read the Km as the concentration of substrate that gives half-maximal velocity.

T1 sequence (P31153 whole entry): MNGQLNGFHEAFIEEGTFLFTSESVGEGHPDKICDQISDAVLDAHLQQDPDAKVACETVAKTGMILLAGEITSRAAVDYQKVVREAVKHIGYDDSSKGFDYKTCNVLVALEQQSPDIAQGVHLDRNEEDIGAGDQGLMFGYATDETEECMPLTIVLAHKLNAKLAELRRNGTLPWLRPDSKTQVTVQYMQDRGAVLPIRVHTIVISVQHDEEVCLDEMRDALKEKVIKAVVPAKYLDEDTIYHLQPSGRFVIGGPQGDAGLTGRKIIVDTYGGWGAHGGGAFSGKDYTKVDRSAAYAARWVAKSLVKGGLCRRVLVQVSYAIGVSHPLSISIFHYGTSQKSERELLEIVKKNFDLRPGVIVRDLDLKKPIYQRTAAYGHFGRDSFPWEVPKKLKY

Consider `CCCCC(C)(C)[C@H](O)/C=C/[C@H]1[C@H](O)CC(=O)[C@@H]1C/C=C\CCCC(=O)O` [16, 16-dimethylPGE2, 16,16-dimethylprosglandin E2], for which, in data set [1], the ED25 is 10.8 µM and the ED75 was 30.1 µM. Compound `CCCCC/C=C\C/C=C\C/C=C\C/C=C\CCCC(=O)O` [AA, arachidonic acid] had an ED25 in data set [1] of 24.0 µM.

For `O=[As]O[As]=O` (stereo not shown) [AS2O3], the RI0.5 in data set [2] (setting [8]) is on record as 0.28 µM. Consider `CC1=C(/C=C/C(C)=C/C=C/C(C)=C/C(=O)O)C(C)(C)CCC1` [ATRA, all-trans retinoic acid], for which, in data set [1], the ED25 is on record as 0.18 µM and the ED75 worked out at 0.75 µM. In data set [1], `C/C(=C\C(=O)Nc1ccccc1C(=O)O)c1ccc2ccccc2c1` [BIBR1532] displayed an ED25 of 32.3 µM and an ED75 of 55.1 µM.

Regarding `CCCCC1C(=O)CC[C@H]2[C@@H]1CC(=O)[C@@H]2C/C=C\CCCC(=O)O` (stereo partly shown) [BicycloPGE2, bicycloprostaglandin E2], the ED25 in data set [1] came to 21.0 µM.

As to `COc1cc2c(cc1O)C[C@H]1c3c(cc(O)c(OC)c3-2)CCN1C` [Boldine], in data set [1], the ED25 is on record as 60.1 µM and the ED75 turned out to be 94.2 µM. `[Cl-].[Cl-].[Co+2]` [CoCl2] gave an RI0.5 in data set [2] of 0.62 µM.

For the compound `COc1cc(/C=C/C(=O)CC(=O)/C=C/c2ccc(O)c(OC)c2)ccc1O` [Curcumin], the water solubility entry in data set [3] is recorded as “not good”. On to `CN(C)C=O` [DMFA, dimethylformamide], for which, in data set [4] (in cell culture, DMFA, 0.3%), the Km is 16.4 µM and the “Vmax (% of control)” value is reported as 78 % of control. For the same compound, in data set [5] (DMFA, 0.3%), the “% NBT+” value came to 14%.

Regarding `O=C(O[C@@H]1Cc2c(O)cc(O)cc2O[C@@H]1c1cc(O)c(O)c(O)c1)c1cc(O)c(O)c(O)c1` [Epigallocatechin gallate], in data set [2] (setting [8]), the RI0.5 is reported as 0.62 µM. In the case of `C/C=C1\C(=O)C[C@H]2[C@@H]3CCC4=CC(=O)CC[C@]4(C)[C@H]3CC[C@]12C` [Gugulsterone], the RI0.5 in data set [2] (setting [8]) is 1.59 µM. `O=C(O)Cc1ccccc1` [PA, phenylacetate]: the Km in data set [4] (in cell culture, PA, 4 mM) was determined as 20.3 µM. In addition, the Vmax (% of control) at 4000 µM in data set [4] (read-out: Vmax (% of control)) came out at 88%. Also, in data set [5] (PA, 4 mM), the “% NBT+” value worked out at 7%. Take `CCCCC[C@H](O)/C=C/[C@H]1[C@H](O)CC(=O)[C@@H]1C/C=C\CCCC(=O)O` [PGE2, prostaglandin E2]: in data set [1], the ED25 is listed as 20.6 µM and the ED75 amounted to 46.5 µM. The corresponding values for `CCCCC[C@H](O)/C=C/[C@H]1C(=O)C=C[C@@H]1C/C=C\CCCC(=O)O` [PGJ2, prostaglandin J2] are 7.9 µM and 20.5 µM.

With `CC(=O)[C@H]1CC[C@H]2[C@@H]3CC=C4C[C@@H](O)CC[C@]4(C)[C@H]3CC[C@]12C` [Pregnenolone], the RI0.5 in data set [2] (setting [8]) came to 7.16 µM. The water solubility result in data set [3] is on record as “not good”. Take `CC1=C(/C=C/C(C)=C/C=C/C(C)=C/C(=O)O)C(C)(C)CCC1` [RA, retinoic acid]: in data set [4] (in cell culture, RA, 0.15 µM, read-out: Km), the Km came out at 17.5 µM. The remaining activity at 0.15 µM in data set [4] (in cell culture, RA, 0.15 µM, read-out: Vmax (% of control)) was found to be 60%. In addition, the “% NBT+” value in data set [5] (RA, 0.15 µM) worked out at 16%. Regarding `O=[Se](O)O` [Selenite], in data set [2] (setting [8]), the RI0.5 is 19.7 µM. As to `C=CC1=C(C)C(=O)N=C1C=c1[nH]c(=Cc2[nH]c(O)c(C)c2CCC(=O)O)c(CCC(=O)O)c1C` [Uroerythrin], the RI0.5 in data set [2] (setting [8]) amounted to 1.75 µM. Same read-out and setting: the same measure for `C=C1CC[C@H](O)C/C1=C/C=C1\CCC[C@]2(C)[C@@H]([C@H](C)CCCC(C)C)CC[C@@H]12` [Vitamin D3]: 0.61 µM; for `Cc1ccc(Nc2nccc(N(C)c3ccc4c(C)n(C)nc4c3)n2)cc1S(N)(=O)=O.Cl` [Votrient]: 10.1 µM. For `CCC(=O)O[C@H]1CC[C@H]2[C@@H]3CCC4=CC(=O)CC[C@]4(C)[C@H]3CC[C@]12C` [testosterone propionate], the “sedimentation of MEs (MAT, MT, SAHH) of prostate cytosol” value in data set [6] was determined as 8 S. As to `CC[C@H](CC[C@@H](C)[C@H]1CC[C@H]2[C@@H]3CC=C4C[C@@H](O)CC[C@]4(C)[C@H]3CC[C@]12C)C(C)C` [ß-sitoisterol], in data set [2] (setting [8]), the RI0.5 worked out at 1.72 µM. For the compound Phenylbutyric acid, the “response of malignant brain tumors” value in data set [7] is given as “responded very well”. Also, the RI0.5 in data set [2] (setting [8]) is reported as 970 µM. Regarding Tetradecanoyl phorbol acetate [TPA], in data set [1], the ED25 was found to be 0.00017 µM and the ED75 was determined as 0.00036 µM.

These data come from patent publication US20230064307A1, “Pharmaceutical composition to destabilize abnormal methylation enzymes and use thereof” (priority 2021, published 2023).
